The values that follow come from ChEMBL document CHEMBL1147874, “Structure-activity based study of the Smac-binding pocket within the BIR3 domain of XIAP” (Bioorg Med Chem, 2007).

Test [1] is filed under the species Homo sapiens. The test can be described thus: Cytotoxicity against […] cells assessed as reduction in cell viability at 30 to 500 uM after 72 hrs by MTT assay. In kind it is functional, cell-based. In general terms: Tetrazolium assays rely on reduction of a dye to a coloured formazan, in cell work by metabolically active cells.
Test [2] addresses E3 ubiquitin-protein ligase XIAP (Homo sapiens, UniProt P98170). The test can be described thus: Binding affinity to BIR3 domain of XIAP by competitive fluorescent binding assay.

Molecules are shown by their SMILES. Calls of active or inactive are those of the source. No cut-off for these calls is given here.

Chain of E3 ubiquitin-protein ligase XIAP (P98170 whole entry, the tested form may be a part): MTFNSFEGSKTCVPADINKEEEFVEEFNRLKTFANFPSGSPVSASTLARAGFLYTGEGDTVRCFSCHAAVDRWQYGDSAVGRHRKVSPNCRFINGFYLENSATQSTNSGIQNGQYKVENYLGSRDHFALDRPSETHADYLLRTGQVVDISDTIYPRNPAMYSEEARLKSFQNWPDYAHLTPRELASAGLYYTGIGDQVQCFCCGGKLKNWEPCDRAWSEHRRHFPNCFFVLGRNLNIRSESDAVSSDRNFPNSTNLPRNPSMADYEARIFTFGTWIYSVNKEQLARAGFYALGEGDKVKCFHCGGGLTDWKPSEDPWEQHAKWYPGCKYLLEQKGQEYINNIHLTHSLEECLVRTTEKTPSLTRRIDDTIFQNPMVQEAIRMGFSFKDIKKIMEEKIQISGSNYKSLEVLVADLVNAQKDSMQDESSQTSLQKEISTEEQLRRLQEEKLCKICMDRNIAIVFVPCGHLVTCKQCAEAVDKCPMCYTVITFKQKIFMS

As for `C[C@H](N)c1nc(C(=O)N2CCC[C@H]2C(=O)N[C@@H](Cc2c[nH]c3ccccc23)C(=O)O)co1`, the result in test [1] was Active. In the case of `CC[C@H](C)[C@H](NC(=O)[C@@H]1CCCN1C(=O)c1coc([C@H](C)N)n1)C(=O)O`, in test [2], the Kd (in general, the concentration at which binding is half-saturated) is 300 µM. On the same count and under the same terms, the figure for `C[C@H](N)c1nc(C(=O)N2CCC[C@H]2C(=O)N[C@@H](Cc2ccccc2)C(=O)O)co1` is 11 µM.

Turning to `CC[C@H](C)[C@H](NC(=O)[C@@H]1CCCN1C(=O)[C@@H](NC(=O)[C@H](C)N)C(C)C)C(=O)O`, the outcome in test [1] was inactive.
